# Source: article PMC7486940, “Pre-symptomatic Caspase-1 inhibitor delays cognitive decline in a mouse model of Alzheimer disease and aging” (Nature Communications, 2020)
# Columns and labels:
# J20 mice [1] = assay: Barnes maze, spatial learning and memory; format: in vivo, mouse
# Description: (§1) VX-765 (Adooq Bioscience, Irvine, CA, USA) was dissolved 5 mg • ml^−1 in 20% cremophor in dH2O[60] (Sigma-Aldrich, ON, Canada) and administered IPWT and J20 mice received three injections per week of either 50 mg • kg^−1 VX-765 or 20% cremophor vehicle for 4 weeks between 2 and 3 months of age. Mice were longitudinally followed starting 4 weeks after the last injection [4-week washout (WO)], then every other month at 12- and 20-week WO (6 and 8 months of age, respectively). Intermediate 8- and 16-week WO periods were also looked at with a smaller number of mice. After each WO period, animals were randomly chosen, independent of behavioural performance, for sacrifice and assigned to either histological or biochemical analysis (Fig. 2a).
# (§2) Open-field and novel object recognition (NOR) were measured at all WO periods. The Barnes maze was assessed at 12- and 20-week WO. Open field: Mice were placed in an open-field chamber, composed of a plexiglass box with no ceiling and white floor, and allowed to explore for 5 min. NOR: Mice were pre-exposed to two identical objects in the open-field chamber for 5 min. Two hours after pre-exposure, mice were placed back into the chamber and exposed to one familiar object and one novel object for 5 min (test phase). Mice were exposed to a specific object only once across multiple test sessions. Barnes maze: Learning acquisition (days 1–4)—each mouse was trained to find the target and enter the escape box within 180 s. Four trials per day, ~15 min apart, were performed for 4 consecutive days. Probe (day 5)—a single, 90 s trial was performed on each mouse to measure primary latency and number of errors to reach the blocked target. Target hole location was changed between the two separate test sessions. Behavioural scoring was blinded to mouse genotype and treatment.
# WT mice = assay: Barnes maze, spatial learning and memory; format: in vivo, mouse
# Description: as §1, §2
# GFAP = GFAP astrogliosis (western blot, immunostaining); format: in vivo, mouse
# Description: as §1
# Mice for immunohistochemistry were isoflurane anesthetized and perfused with ice-cold 4% paraformaldehyde in 0.1 M PBS (Sigma-Aldrich). Brains were post-fixed overnight in 10% neutral-buffered formalin (ThermoFisher Scientific, ON, Canada) and transferred to 70% ethanol for paraffin embedding and sectioning at 4 μm. Tissue slides underwent heat-induced antigen retrieval with citrate or EDTA buffer. […]
# Iba1-positive microglia were quantified using a modified version of an area-specific counting frame. […] Microglial activation level was determined based on morphological measurements[19],[41]. Aβ1-40 and GFAP immunostaining density was measured across four sections using ImageJ software (NIH, Bethesda, MD, USA). Quantification was blinded to treatment and genotype.
# Twenty to sixty micrograms of protein or 16 μl of precipitated protein from culture medium were separated on SDS-PAGE or 4–12% NuPAGE Bis-Tris gels (Invitrogen, Carlsbad, CA, USA) with MES buffer (Invitrogen) and transferred onto PVDF membranes (Bio-Rad) according to the manufacturer’s instructions. […] Protein levels were normalized to β-actin and expressed as a percentage relative to the vehicle-treated WT group, except for APP which was compared to the vehicle-treated J20 group. […]
# [2] = test system: Nlrp1, Nlrp3, Asc, Casp1, Casp6, Casp11, Casp3; assay: inflammasome and caspase expression (PCR, Casp1 western blot); format: in vivo, mouse
# Description: as §1
# Twenty to sixty micrograms of protein or 16 μl of precipitated protein from culture medium were separated on SDS-PAGE or 4–12% NuPAGE Bis-Tris gels (Invitrogen, Carlsbad, CA, USA) with MES buffer (Invitrogen) and transferred onto PVDF membranes (Bio-Rad) according to the manufacturer’s instructions. Membranes were probed with the following antibodies: 1:1000 mouse anti-Aβ1-16 (6E10) (BioLegend, CA, USA), 1:2000 rabbit anti-APP C-terminus (A8717) (Sigma-Aldrich), 1:1000 rabbit anti-neprilysin (Nep, Abcam, ON, Canada), 1:500 rabbit anti-insulin degrading enzyme (IDE, Abcam), 1:3000 rabbit anti-GFAP (Dako), 1:1000 rabbit anti-IL-1β (Abcam), 1:1000 rat anti-Caspase-1 (clone 4B4.2.1, kindly provided by Genentech, San Francisco, CA, USA) and 1:1000 mouse anti-β-actin (Sigma-Aldrich). […] Signals were visualized with the ImageQuant LAS 4000 imaging system and densitometric analyses were performed with Image Gauge analysis software 3.0 (Fujifilm USA, NY, USA). Protein extracts from three independent mice in each group were run together on each blot. Protein levels were normalized to β-actin and expressed as a percentage relative to the vehicle-treated WT group, except for APP which was compared to the vehicle-treated J20 group. Representative full blots are shown in the Source data file. […]
# [3] = female, C57BL/6J, mouse, in vivo, ip, 50 mg/kg, 0.25 h
# Description: Plasma, whole brain and CSF concentrations of VX-765 and its active metabolite, VRT-043198, were determined by LC-MS/MS at Paraza Pharma (Montreal, QC, Canada). Fourteen C57BL/6J female mice received a single IP dose of 50 mg · kg^−1 VX-765 and 2 mice per time point were euthanized at 0.25, 0.5, 1, 3, 6, 8 and 24 h post-injection. Mice were isoflurane anesthetized to collect CSF and perform a cardiac puncture followed by whole body perfusion with PBS. Plasma samples were extracted 1:1 in spiking solution and internal standard solution containing 0.1 μM glyburide in acetonitrile. Brain and CSF samples were extracted 1:1 in spiking solution and internal standard solution containing 0.2 μM labetalol in 50:50 methanol:acetonitrile. Samples were centrifuged at 4000 × g for 10 min at 4 °C, the plasma supernatant diluted 1:1 and the brain and CSF supernatant diluted 1:2 in H2O, and 5 μl was injected into a Quantis LC-MS/MS system for analysis.
# [4] = set-up: method as in PMID 30254377; settings: cited from earlier work
# J20 mice [5] = test system: J20 mice; set-up: method as in PMID 30254377; settings: cited from earlier work
# CD4 T-cell = test system: CD4 T-cell; set-up: method as in PMID 24356306; settings: HIV; cited from earlier work
# [6] = J20, 12-week WO, probe 24 h after last training day
smiles,measurement,setting,value
"CCO[C@@H]1OC(=O)C[C@@H]1NC(=O)[C@@H]1CCCN1C(=O)[C@@H](NC(=O)c1ccc(N)c(Cl)c1)C(C)(C)C [VX-765, (S)-1-((S)-2-{[1-(4-amino-3-chloro-phenyl)-methanoyl]-amino}-3,3-dimethyl-butanoyl)-pyrrolidine-2-carboxylic acid ((2R,3S)-2-ethoxy-5-oxo-tetrahydro-furan-3-yl)-amide]",Barnes maze probe preference towards the target area,J20 mice [1]; 12-week WO,"All groups, except the vehicle-treated J20 group, showed a preference towards the target area"
same,Barnes maze training primary latency,"J20 mice [1]; 12-week WO, all groups",did not differ between groups
same,Barnes maze learning acquisition primary errors,"J20 mice [1]; J20, 12-week WO, 50 mg/kg IP 3x/week for 1 month",prevented this learning deficit in J20 mice and reduced the number of errors committed to near WT levels
same,Barnes maze probe primary errors,J20 mice [1]; [6],VX-765 treatment prevented this deficit
same,Barnes maze probe primary latency,J20 mice [1]; [6],did not differ between vehicle- or VX-765-treated J20 and vehicle-treated WT groups
same,Barnes maze learning deficits,"J20 mice [1]; J20, 20-week WO","vehicle-, but not VX-765-treated, J20 mice exhibited learning deficits"
same,Barnes maze probe primary latency and primary errors,"J20 mice [1]; J20, 20-week WO",these deficits were prevented with VX-765 treatment
same,Barnes maze probe primary latency and primary errors,"WT mice; 12-week WO, vs vehicle-treated WT",decreased primary latency and primary errors compared to vehicle-treated WT mice
same,Barnes maze probe primary latency and primary errors,WT mice; 20-week WO,This effect was attenuated at 20-week WO
same,delay of GFAP astrogliosis,GFAP; J20,3 months
same,immunopositive GFAP astrogliosis,GFAP; J20 hippocampus and cortex,"prevented astrogliosis until 8- and 12-week WO in the hippocampus and cortex, respectively"
same,hippocampal GFAP levels (western blot),"GFAP; J20 hippocampus, 4- and 20-week WO",normalized with VX-765 treatment only at 20-week WO
same,full-length Casp1 levels (western blot),"[2]; J20 cortex, 20-week WO","reduced full-length Casp1 levels slightly compared to vehicle-treated J20 mice, but this did not reach statistical significance"
same,"Casp1, Casp6, Casp11 and Casp3 hippocampal mRNA levels",[2]; hippocampus,no differences were observed
same,"Nlrp1, Nlrp3 and Asc hippocampal mRNA levels","[2]; hippocampus, vehicle WT, vehicle J20, VX-765 J20",did not differ between the three treatment groups at any of the WO periods
same,CSF concentration relative to respective in vitro Casp1 IC50,[3],100 fold
same,brain concentration relative to respective in vitro Casp1 IC50,[3],50 fold
same,plasma concentration relative to respective in vitro Casp1 IC50,[3],100 fold
same,concentration in the J20 brain,"[4]; 50 mg/kg dose of VX-765, carotid infusion, J20 mice",2000 to 5000 nM
same,blood–brain barrier permeability,[4],blood–brain barrier permeable
same,toxicity,J20 mice [5],non-toxic
same,"memory deficits, inflammation, synaptic loss and Aβ accumulation",J20 mice [5]; given at the onset of the J20 mouse symptoms,"reverses spatial and episodic memory deficits, inflammation and synaptic loss, and prevents progressive Aβ accumulation"
same,"inflammation, CD4 T-cell death and pyroptosis",CD4 T-cell,reduce inflammation by suppressing CD4 T-cell death and pyroptosis in HIV
